Assay results: paper PMC4503722, “Novel Phenotypic Outcomes Identified for a Public Collection of Approved Drugs from a Publicly Accessible Panel of Assays” (PLoS ONE, 2015)
Where two headings read alike, the source gives them in different places.

How the values were obtained:
[1] = tested on: NCI-H716 cells; assay: cells; type: cell-based, Human
[2] = tested on: HCT116 cells treated with a GSK3β inhibitor; assay: cells; type: cell-based; conditions: Homo sapiens, HCT-116; HCT116 pretreated with GSK3b inhibitor; read-out: GSK3b inh pretreated_Viability ATP HCT116
[3] = tested on: HCT116; assay: cells; type: cell-based; conditions: Homo sapiens, HCT-116, basal; HCT116; read-out: Basal_Viability ATP HCT116
[4] = tested on: nuclear β-catenin in C2C12 cells; assay: cells; type: cell-based; conditions: Mus musculus, C2C12; read-out: Wnt Pathway
[5] = FAERS, ref [45], cited from earlier work; for Adjusted Z-Score: Drug A with vs without methotrexate; for # of Specific AE Occurrence With Drug A With Drug B: with methotrexate; for # of Specific AE Occurrence With Drug A Without Drug B: without methotrexate
[6] = tested on: INS-1E cells; assay: cells; type: cell-based, rat; conditions: for 5mMGluc_INS1E SecretionMod IC50/EC50: assay number 8, 5 mM glucose
[7] = tested on: HeLa cells; assay: cells; type: cell-based; conditions: for Hela CellCycMod PI 2N IC50/EC50: assay number 14; for Hela CellCycMod PI S Phase IC50/EC50: assay number 15; for Hela CellCycMod PI 4N IC50/EC50: assay number 16; for Hela CellCycMod PI MI IC50/EC50: assay number 17; for Hela CellCycMod PI Cell Number IC50/EC50: assay number 18
[8] = tested on: SW480; assay: cells; type: cell-based; conditions: Homo sapiens; basal; SW480; read-out: Basal_Viability ATP SW480
[9] = tested on: DLD-1; assay: cells; type: cell-based; conditions: Homo sapiens; basal; DLD-1; read-out: Basal_Viability ATP DLD-1
[10] = tested on: tonic K+ channel activity in INS-1E cells; assay: cells; type: cell-based, rat; conditions: assay number 10; 0.1 mM glucose
[11] = tested on: INS-1E cells; type: cell-based, rat; conditions: assay number 9; 0.1 mM glucose;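 as to 5mMGluc INS1E SecretionMod IC50/EC50: secreted insulin quantified by homogeneous immunoassay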
[12] = tested on: STC-1 cell line; type: cell-based, mouse; conditions: assay number 13

N[C@@H](Cc1ccc(N(CCCl)CCCl)cc1)C(=O)O [Melphalan]
EC50 ([1]; Homo sapiens, NCI-H716, read-out: GLP 1 Secretion): > 10 µM
IC50 [2]: 15.4 µM
IC50 [3]: > 20 µM
EC50 [4]: > 10 µM
Adjusted Z-Score ([5]; AE BONE DISORDER): -3.0915
# of Specific AE Occurrence With Drug A With Drug B ([5]; AE BONE DISORDER): 0
# of Specific AE Occurrence With Drug A Without Drug B ([5]; AE BONE DISORDER): 731
Adjusted Z-Score ([5]; AE OSTEOMYELITIS): -3.729
# of Specific AE Occurrence With Drug A With Drug B ([5]; AE OSTEOMYELITIS): 9
# of Specific AE Occurrence With Drug A Without Drug B ([5]; AE OSTEOMYELITIS): 479
Adjusted Z-Score ([5]; AE OSTEONECROSIS OF JAW): -3.716
# of Specific AE Occurrence With Drug A With Drug B ([5]; AE OSTEONECROSIS OF JAW): 17
# of Specific AE Occurrence With Drug A Without Drug B ([5]; AE OSTEONECROSIS OF JAW): 557
Adjusted Z-Score ([5]; AE OSTEONECROSIS): -3.771
# of Specific AE Occurrence With Drug A With Drug B ([5]; AE OSTEONECROSIS): 1
# of Specific AE Occurrence With Drug A Without Drug B ([5]; AE OSTEONECROSIS): 786
EC50 ([6]; Rattus norvegicus, INS-1E, read-out: Insulin Secretion): > 10 µM
EC50 ([7]; Homo sapiens, S2 Table, HeLa, 20 = no response at highest concentration, read-out: CellCycle G2/M): 5.36 µM
IC50 [8]: > 20 µM
IC50 [9]: > 20 µM

Cc1ccc(S(=O)(=O)NC(=O)NN2CC3CCCC3C2)cc1 (stereo not drawn) [NCGC00095107-09]
0.1mMGluc_INS1E FluxOR IC50/EC50 [10]: 0.6403 µM
0.1mMGluc_INS1E SecretionMod Act IC50/EC50 [11]: > 33.33 µM
5mMGluc_INS1E SecretionMod IC50/EC50 [6]: 1.834 µM
Hela CellCycMod PI 2N IC50/EC50 [7]: > 10 µM
Hela CellCycMod PI S Phase IC50/EC50 [7]: > 10 µM
Hela CellCycMod PI 4N IC50/EC50 [7]: > 10 µM
Hela CellCycMod PI MI IC50/EC50 [7]: > 10 µM
Hela CellCycMod PI Cell Number IC50/EC50 [7]: > 10 µM

COc1cccc2c1C(=O)c1c(O)c3c(c(O)c1C2=O)C[C@@](O)(C(=O)CO)C[C@@H]3O[C@H]1C[C@H](N)[C@H](O)[C@H](C)O1 [Doxorubicin]
# of Specific AE Occurrence With Drug A With Drug B ([5]; AE BONE DISORDER): 49
# of Specific AE Occurrence With Drug A Without Drug B ([5]; AE BONE DISORDER): 912

Clc1ccc2c(c1)CCc1cccnc1C2=C1CCNCC1 [NCGC00159325-05]
hNCI-H716 GLP1 Secretion IC50/EC50 ([1]; assay number 12): > 40 µM
mSTC-1 GLP1 Secretion IC50/EC50 [12]: > 40 µM
0.1mMGluc_INS1E FluxOR IC50/EC50 [10]: > 33.3333 µM
0.1mMGluc_INS1E SecretionMod Act IC50/EC50 [11]: > 33.33 µM
5mMGluc_INS1E SecretionMod IC50/EC50 [6]: 7.105 µM

Cc1ccc(CCn2c3c(c4cc(Cl)ccc42)CN(C)CC3)cn1 [NCGC00253726-01]
0.1mMGluc_INS1E FluxOR IC50/EC50 [10]: 39.9057 µM
0.1mMGluc_INS1E SecretionMod Act IC50/EC50 [11]: > 33.33 µM
5mMGluc_INS1E SecretionMod IC50/EC50 [6]: 4.201 µM
Hela CellCycMod PI 2N IC50/EC50 [7]: > 10 µM
Hela CellCycMod PI S Phase IC50/EC50 [7]: > 10 µM
Hela CellCycMod PI 4N IC50/EC50 [7]: > 10 µM
Hela CellCycMod PI MI IC50/EC50 [7]: > 10 µM
Hela CellCycMod PI Cell Number IC50/EC50 [7]: > 10 µM

CCCNCC(O)COc1ccccc1C(=O)CCc1ccccc1 (stereo not drawn) [NCGC00015819-15]
0.1mMGluc_INS1E FluxOR IC50/EC50 [10]: 5.346 µM
0.1mMGluc_INS1E SecretionMod Act IC50/EC50 [11]: > 33.33 µM
5mMGluc_INS1E SecretionMod IC50/EC50 [6]: 4.919 µM
Hela CellCycMod PI 2N IC50/EC50 [7]: > 10 µM
Hela CellCycMod PI S Phase IC50/EC50 [7]: > 10 µM
Hela CellCycMod PI 4N IC50/EC50 [7]: > 10 µM
Hela CellCycMod PI MI IC50/EC50 [7]: > 10 µM
Hela CellCycMod PI Cell Number IC50/EC50 [7]: > 10 µM

B1: Pegfilgrastim: Drug A generic name in the FAERS table (protein, UniProt P09919 31-207, looked up)
Granulocyte …: TPLGPASSLPQSFLLKCLEQVRKIQGDGAALQEKLVSECATYKLCHPEELVLLGHSLGIPWAPLSSCPSQALQLAGCLSQLHSGLFLYQGLLQALEGISPELGPTLDTLQLDVADFATTIWQQMEELGMAPALQPTQGAMPAFASAFQRRAGGVLVASHLQSFLEVSYRVLRHLAQP
modifications: pegfilgrastim; PEG; N-terminal Met
Adjusted Z-Score ([5]; AE BONE PAIN): -2.755
# of Specific AE Occurrence With Drug A With Drug B ([5]; AE BONE PAIN): 13
# of Specific AE Occurrence With Drug A Without Drug B ([5]; AE BONE PAIN): 641
